Test results taken from PMC9293752, “Cholenic acid derivative UniPR1331 impairs tumor angiogenesis via blockade of VEGF/VEGFR2 in addition to Eph/ephrin” (Cancer Gene Therapy, 2021).

Target: T1, VEGFR2 (Homo sapiens, UniProt P35968)
T1 construct: gene KDR; monomeric recombinant form of the extracellular portion of VEGFR2 fused to Fc
Experiment: SPR (BIAcore X100), steady-state Scatchard analysis; supported by VEGF/VEGFR2 ELISA displacement (IC50 […])
Format: binding

T1 sequence (P35968 20-764 limits assumed): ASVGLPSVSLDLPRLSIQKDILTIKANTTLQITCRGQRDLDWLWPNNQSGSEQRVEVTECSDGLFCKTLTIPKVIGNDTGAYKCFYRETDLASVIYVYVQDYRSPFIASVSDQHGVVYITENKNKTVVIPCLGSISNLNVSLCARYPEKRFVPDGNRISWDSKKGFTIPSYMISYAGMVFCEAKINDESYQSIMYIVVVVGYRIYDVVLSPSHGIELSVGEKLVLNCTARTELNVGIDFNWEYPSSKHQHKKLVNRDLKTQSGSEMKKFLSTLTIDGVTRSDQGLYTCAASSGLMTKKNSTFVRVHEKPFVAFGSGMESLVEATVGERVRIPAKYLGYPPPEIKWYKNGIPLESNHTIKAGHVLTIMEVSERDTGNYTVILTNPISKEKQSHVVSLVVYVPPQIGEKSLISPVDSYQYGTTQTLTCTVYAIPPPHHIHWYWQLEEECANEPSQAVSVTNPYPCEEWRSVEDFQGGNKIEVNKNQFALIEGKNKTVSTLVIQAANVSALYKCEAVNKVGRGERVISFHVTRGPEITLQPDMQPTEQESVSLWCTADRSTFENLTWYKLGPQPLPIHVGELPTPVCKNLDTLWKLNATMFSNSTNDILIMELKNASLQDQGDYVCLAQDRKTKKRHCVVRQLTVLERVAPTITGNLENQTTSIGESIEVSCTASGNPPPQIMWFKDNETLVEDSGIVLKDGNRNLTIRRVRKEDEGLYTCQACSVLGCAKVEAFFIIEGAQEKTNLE

C[C@H](CCC(=O)N[C@@H](Cc1c[nH]c2ccccc12)C(=O)O)[C@H]1CC[C@H]2[C@@H]3CC=C4C[C@@H](O)CC[C@]4(C)[C@H]3CC[C@]12C [UniPR1331]
Kd: 62.2 ± 2.1 µM
